Data published in ChEMBL document CHEMBL1201862, “PubChem BioAssay data set” (2004).
Calls of active or inactive are those of the source.

Experiments:
[1] = molecular target: T1, Zinc finger protein mex-5 (Caenorhabditis elegans, UniProt Q9XUB2); experiment: MEX-5/TCR-2 RNA interaction inhibitors, dose response, biochemical, C. elegans, fluorescence polarization (AID 1960)
T1 sequence (Q9XUB2 whole entry): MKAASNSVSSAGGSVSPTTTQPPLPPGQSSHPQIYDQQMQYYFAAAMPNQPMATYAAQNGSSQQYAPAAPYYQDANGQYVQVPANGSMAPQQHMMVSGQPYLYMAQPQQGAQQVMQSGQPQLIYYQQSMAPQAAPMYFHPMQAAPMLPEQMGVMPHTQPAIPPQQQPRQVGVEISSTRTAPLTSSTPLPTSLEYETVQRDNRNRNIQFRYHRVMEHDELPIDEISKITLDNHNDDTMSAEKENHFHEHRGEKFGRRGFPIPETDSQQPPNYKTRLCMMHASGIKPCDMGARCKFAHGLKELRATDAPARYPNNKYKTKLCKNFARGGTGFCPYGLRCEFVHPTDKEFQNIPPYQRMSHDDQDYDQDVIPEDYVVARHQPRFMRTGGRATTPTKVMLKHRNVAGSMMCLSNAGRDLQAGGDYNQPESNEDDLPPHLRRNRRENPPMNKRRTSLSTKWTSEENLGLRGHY

Ephrin type-A receptor 4 = Ephrin type-A receptor 4 (Mus musculus, UniProt Q03137); experiment: inhibitors of EphA4 binding to KYL peptide, primary screen, biochemical, colorimetric, mouse EphA4 (AID 689); assay type: functional
Chain of Ephrin type-A receptor 4 (Q03137 whole entry, the tested form may be a part): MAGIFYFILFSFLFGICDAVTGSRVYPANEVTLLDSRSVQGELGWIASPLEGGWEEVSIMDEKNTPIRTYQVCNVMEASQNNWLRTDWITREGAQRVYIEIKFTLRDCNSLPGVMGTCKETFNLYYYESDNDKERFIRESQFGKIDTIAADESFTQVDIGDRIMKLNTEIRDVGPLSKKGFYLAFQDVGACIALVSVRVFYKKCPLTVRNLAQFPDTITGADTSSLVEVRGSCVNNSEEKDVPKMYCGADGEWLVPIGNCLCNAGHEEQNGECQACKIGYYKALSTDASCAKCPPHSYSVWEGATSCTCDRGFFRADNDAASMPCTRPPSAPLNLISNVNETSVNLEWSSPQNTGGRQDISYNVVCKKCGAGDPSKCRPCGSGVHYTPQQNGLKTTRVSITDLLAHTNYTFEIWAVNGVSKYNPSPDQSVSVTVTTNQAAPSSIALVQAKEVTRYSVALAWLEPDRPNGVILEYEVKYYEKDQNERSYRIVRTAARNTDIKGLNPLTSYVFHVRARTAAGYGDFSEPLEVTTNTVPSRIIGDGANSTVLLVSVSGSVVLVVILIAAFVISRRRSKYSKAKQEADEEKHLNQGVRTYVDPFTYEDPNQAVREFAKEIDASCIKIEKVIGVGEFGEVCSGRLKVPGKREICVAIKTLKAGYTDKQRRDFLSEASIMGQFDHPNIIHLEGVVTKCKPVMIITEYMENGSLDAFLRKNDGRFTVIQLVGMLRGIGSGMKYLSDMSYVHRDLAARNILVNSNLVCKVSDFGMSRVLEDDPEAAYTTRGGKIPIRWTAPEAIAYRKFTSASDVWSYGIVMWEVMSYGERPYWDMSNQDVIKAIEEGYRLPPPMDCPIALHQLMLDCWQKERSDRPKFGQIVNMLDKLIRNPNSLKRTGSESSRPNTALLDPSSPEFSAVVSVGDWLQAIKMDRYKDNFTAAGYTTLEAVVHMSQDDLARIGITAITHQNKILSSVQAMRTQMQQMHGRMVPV

[2] = molecular target: T2, RNA-binding protein pos-1 (Caenorhabditis elegans, UniProt G5EF15); experiment: inhibitors of POS-1/mex-3 RNA binding, dose response, biochemical, fluorescence polarization (AID 1964);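 note: purified POS-1 fused to maltose binding protein made in E. coli; potency of compounds blocking POS-1 binding to fluorescent RNA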
T2 sequence (G5EF15 whole entry): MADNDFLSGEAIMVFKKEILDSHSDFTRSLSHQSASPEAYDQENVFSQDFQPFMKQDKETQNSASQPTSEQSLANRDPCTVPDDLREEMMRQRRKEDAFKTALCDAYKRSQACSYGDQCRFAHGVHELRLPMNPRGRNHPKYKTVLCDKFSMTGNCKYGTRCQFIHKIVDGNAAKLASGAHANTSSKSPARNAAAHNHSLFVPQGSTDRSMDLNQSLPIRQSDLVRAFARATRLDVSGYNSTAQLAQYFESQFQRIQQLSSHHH

Beta Lactamase = Beta Lactamase (Pseudomonas aeruginosa, UniProt Q932Y6); experiment: beta-lactamase reporter inhibitor potency, dose response, artefact control for TLR9-MyD88 binding inhibitor project, BLA reporter cells, FRET fluorescence (AID 588341); assay type: cell-based;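 note: cell based assay in CHO-K1 cells stably expressing beta-lactamase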
Chain of Beta Lactamase (Q932Y6 whole entry, the tested form may be a part): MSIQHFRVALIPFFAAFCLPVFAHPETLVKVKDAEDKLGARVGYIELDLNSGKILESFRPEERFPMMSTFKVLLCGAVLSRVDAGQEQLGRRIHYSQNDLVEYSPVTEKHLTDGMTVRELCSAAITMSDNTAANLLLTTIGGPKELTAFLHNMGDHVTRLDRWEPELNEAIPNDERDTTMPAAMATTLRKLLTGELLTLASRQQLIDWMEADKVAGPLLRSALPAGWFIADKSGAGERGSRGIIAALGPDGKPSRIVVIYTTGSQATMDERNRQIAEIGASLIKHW

CHO = experiment: cytotoxicity in TLR9-MyD88 CHO cells, dose response, cytotoxicity control for TLR9-MyD88 binding inhibitor project, cell-based, luminescence (AID 588339); assay type: functional, hamster; details: Cricetulus griseus;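 note: CHO cells stably coexpressing TLR9 and MyD88 fusions from primary screen; compound exposure lasted 48 hours before viability readout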
[3] = THP-1 cell cytotoxicity, dose response, cytotoxicity control for Vif-APOBEC3G degradation inhibitor project, THP-1 cells (AID 1117359); assay type: functional; details: Human immunodeficiency virus 1, THP-1
[4] = inhibitors of Vif binding to APOBEC3G peptide, primary screen, biochemical, TR-FRET, GST-Vif 1-94, biotin-A3G peptide, dose response retest (AID 1117319); assay type: functional;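 note: TR-FRET signal of purified GST-Vif binding a biotinylated A3G peptide; inhibitors lower the FRET signal by blocking Vif and A3G binding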
Cytochrome P450 2C9 = Cytochrome P450 2C9 (Homo sapiens, UniProt P11712)
Chain of Cytochrome P450 2C9 (P11712 whole entry): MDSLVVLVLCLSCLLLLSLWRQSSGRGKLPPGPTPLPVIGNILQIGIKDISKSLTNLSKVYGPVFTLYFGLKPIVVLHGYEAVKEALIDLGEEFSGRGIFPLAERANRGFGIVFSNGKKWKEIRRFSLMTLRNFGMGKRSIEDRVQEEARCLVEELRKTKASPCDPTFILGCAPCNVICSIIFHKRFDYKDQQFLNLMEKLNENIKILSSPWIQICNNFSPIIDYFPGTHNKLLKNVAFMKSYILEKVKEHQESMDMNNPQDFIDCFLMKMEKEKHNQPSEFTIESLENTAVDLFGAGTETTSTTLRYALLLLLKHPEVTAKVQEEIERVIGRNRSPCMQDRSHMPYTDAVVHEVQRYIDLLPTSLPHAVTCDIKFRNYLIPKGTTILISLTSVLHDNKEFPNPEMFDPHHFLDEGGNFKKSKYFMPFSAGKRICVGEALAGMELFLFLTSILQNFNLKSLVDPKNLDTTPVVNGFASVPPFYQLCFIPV

Cytochrome P450 2C19 [5] = molecular target: T3, Cytochrome P450 2C19 (Homo sapiens, UniProt P33261); experiment: Cytochrome panel assay with activity outcomes. Panel member name: p450-cyp2c19 Compounds with AC50 equal or less than 10 uM are considered active; assay type: functional; details: read-out: AC50
T3 sequence (P33261 whole entry): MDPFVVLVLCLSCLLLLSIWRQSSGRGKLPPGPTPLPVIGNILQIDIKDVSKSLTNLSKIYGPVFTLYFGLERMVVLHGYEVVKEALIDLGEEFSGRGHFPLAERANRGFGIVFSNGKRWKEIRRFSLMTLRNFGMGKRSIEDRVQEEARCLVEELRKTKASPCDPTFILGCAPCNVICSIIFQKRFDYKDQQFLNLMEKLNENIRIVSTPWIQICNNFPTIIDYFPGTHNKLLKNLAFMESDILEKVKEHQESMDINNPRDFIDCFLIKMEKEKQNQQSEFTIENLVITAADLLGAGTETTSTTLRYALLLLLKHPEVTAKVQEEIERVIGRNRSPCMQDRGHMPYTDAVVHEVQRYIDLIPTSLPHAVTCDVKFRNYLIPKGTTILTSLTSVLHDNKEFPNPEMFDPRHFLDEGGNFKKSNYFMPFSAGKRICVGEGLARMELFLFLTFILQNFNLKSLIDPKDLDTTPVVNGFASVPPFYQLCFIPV

Cytochrome P450 2C19 [6] = molecular target: T3, Cytochrome P450 2C19; experiment: qHTS Assay for Inhibitors and Substrates of Cytochrome P450 2C19. [Related pubchem assays: 410 ]; assay type: ADME; details: read-out: Potency
[7] = molecular target: Aryl hydrocarbon receptor (Homo sapiens, UniProt P35869); experiment: Luminescence-based cell-based high throughput dose response assay for activators of the Aryl Hydrocarbon Receptor (AHR). [Related pubchem assays: 2796 (Primary screen (AHR activators in singlicate)), 2845 (Confirmation screen (AHR activators in triplicate)), 434939 (Counterscreen (PXR activators in triplicate)), 2804 (Summary (AHR activators))]; assay type: ADME
Chain of Aryl hydrocarbon receptor (P35869 whole entry): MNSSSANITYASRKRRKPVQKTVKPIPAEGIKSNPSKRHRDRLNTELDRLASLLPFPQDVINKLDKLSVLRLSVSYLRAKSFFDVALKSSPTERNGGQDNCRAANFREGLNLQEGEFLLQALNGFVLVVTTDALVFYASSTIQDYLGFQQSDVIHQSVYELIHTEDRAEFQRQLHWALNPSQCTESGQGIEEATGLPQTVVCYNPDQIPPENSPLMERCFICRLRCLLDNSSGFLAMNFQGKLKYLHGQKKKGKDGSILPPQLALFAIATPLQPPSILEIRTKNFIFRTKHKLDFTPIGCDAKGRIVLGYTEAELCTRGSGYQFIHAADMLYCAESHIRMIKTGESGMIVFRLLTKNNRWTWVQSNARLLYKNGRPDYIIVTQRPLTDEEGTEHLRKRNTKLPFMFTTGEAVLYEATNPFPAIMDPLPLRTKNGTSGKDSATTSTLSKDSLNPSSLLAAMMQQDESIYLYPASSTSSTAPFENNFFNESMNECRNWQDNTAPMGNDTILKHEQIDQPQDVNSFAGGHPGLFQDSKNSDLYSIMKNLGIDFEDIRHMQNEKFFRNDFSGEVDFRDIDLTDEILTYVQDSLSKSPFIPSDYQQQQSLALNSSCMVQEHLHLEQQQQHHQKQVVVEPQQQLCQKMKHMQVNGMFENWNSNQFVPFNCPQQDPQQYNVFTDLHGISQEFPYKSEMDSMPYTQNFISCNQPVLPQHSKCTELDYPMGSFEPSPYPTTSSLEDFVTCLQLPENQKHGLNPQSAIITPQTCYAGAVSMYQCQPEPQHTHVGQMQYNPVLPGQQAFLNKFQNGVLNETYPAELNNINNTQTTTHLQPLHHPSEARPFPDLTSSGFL

[8] = molecular target: T4, Heat shock factor protein 1 (Mus musculus, UniProt P38532); experiment: inhibition of MG132-induced HSE-luciferase signal, confirmation, cell-based, NIH3T3, luminescence, dose retest (AID 2382); assay type: functional;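 note: NIH3T3 fibroblasts with HSF1-driven luciferase reporter stressed by proteasome inhibitor MG132; luminescence from HSF1-driven luciferase expression after 8 hours of MG132 stress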
T4 sequence (P38532 whole entry): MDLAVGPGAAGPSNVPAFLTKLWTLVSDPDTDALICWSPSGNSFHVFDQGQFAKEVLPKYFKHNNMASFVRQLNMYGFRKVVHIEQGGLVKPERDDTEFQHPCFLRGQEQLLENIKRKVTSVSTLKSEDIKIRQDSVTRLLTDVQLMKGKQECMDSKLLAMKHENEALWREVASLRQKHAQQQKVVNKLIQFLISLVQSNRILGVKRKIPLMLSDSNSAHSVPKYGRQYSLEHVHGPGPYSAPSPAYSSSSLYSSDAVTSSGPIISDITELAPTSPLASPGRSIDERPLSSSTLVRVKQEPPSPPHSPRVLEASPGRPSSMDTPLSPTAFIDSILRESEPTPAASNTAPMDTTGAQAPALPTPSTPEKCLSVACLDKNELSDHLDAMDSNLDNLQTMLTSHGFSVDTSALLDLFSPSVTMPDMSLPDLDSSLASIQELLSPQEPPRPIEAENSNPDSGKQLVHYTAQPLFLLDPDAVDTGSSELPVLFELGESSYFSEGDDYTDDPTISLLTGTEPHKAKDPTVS

[9] = inhibitors of clade B AD8 Env fusion, dose response, cell-based, cherry-pick (AID 652062); assay type: functional;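 note: luciferase signal from cell-cell fusion driven by HIV-1 clade B AD8 Env; potency is for inhibitors of fusion seen as a drop in luminescence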
[10] = off-target signal loss in HeLa-CEM21 co-culture – HeLa F-luc CTL cells, cherry-picked, counter-screen for HIV-1 Env fusion inhibitor project, dose response (AID 652040); assay type: functional, cell-based;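 note: potency for signal decrease marking cytotoxic or nonspecific inhibition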
[11] = inhibitors of HIV Env-driven cell fusion, dose response, cherry-pick (AID 652057); assay type: functional, cell-based
[12] = CEM21 lymphoblast cell cytotoxicity, dose response, cytotoxicity control for viral fusion inhibitor project, CellTiter-Glo luminescence, cherry-picked (AID 652042); assay type: functional, cell-based;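 note: potency for signal decrease meaning cytotoxicity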
[13] = ZM109 Env clade C HIV-1 fusion inhibitors, dose response, HeLa effector, CEM target cells, luciferase, cherry-pick (AID 652058); assay type: functional, cell-based
[14] = molecular target: T5, Microphthalmia-associated transcription factor (Homo sapiens, UniProt O75030); experiment: TRPM1 promoter luciferase signal decrease, dose response, MITF inhibitor project, cell-based, SK-MEL-5, cherry-picked, set 3 (AID 493073); assay type: functional
T5 sequence (O75030 whole entry): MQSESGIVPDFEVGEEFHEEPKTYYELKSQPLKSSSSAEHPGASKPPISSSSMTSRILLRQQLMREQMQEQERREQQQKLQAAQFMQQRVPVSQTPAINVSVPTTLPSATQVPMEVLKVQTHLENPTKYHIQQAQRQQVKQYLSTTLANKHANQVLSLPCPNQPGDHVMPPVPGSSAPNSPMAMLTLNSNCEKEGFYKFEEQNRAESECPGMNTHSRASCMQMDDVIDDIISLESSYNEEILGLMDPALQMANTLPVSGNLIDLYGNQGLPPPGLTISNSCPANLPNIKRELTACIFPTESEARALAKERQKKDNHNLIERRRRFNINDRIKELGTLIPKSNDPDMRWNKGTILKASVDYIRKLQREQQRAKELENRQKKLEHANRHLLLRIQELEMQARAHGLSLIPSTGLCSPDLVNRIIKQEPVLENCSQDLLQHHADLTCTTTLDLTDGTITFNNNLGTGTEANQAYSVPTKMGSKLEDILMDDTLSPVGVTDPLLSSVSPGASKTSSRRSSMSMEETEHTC

Protein Tat = Protein Tat (Human immunodeficiency virus type 1 group M subtype B (isolate HXB2)(HIV-1), UniProt P04608); assay type: functional;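 note: tat binding to TAR RNA read out by fluorescence polarization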
Chain of Protein Tat (P04608 whole entry): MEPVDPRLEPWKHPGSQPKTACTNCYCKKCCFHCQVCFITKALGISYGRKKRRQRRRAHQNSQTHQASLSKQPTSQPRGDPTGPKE

[15] = cytotoxicity toward HT-29 cells – cell-based, CellTiter-Glo luminescence, IC50, dose response (AID 1117330); assay type: functional
[16] = cytotoxicity toward Colo320 cells – cell-based, CellTiter-Glo luminescence, IC50, dose response (AID 1117334); assay type: functional; details: COLO 320
[17] = SNU-C1 cell viability reduction, dose response, CellTiter-Glo luminescence (AID 1117323); assay type: functional, cell-based
[18] = RKO cell viability reduction, dose response, CellTiter-Glo luminescence (AID 1117322); assay type: functional
[19] = CellTiter-Glo luminescent dose response of DLD-1 viability loss (AID 1117352); assay type: functional
[20] = cytotoxicity toward HCT116 cells – cell-based, CellTiter-Glo luminescence, IC50, dose response (AID 1117332); assay type: functional; details: HCT-116
[21] = Concentration-dependent survival of SW480 colon cancer line, luminescence detection with CellTiter-Glo, half-maximal inhibitory concentration (AID 1117338); assay type: functional
[22] = molecular target: T6, Oxysterols receptor LXR-beta (Homo sapiens, UniProt P55055); experiment: LXR agonists, Gal4 luciferase reporter, dose response, counter-screen for ssDAF-12 agonist project, cell-based, luminescence, HEK293, S. stercoralis campaign (AID 720737); assay type: functional; details: read-out: IC50 (the source's name)
T6 sequence (P55055 whole entry): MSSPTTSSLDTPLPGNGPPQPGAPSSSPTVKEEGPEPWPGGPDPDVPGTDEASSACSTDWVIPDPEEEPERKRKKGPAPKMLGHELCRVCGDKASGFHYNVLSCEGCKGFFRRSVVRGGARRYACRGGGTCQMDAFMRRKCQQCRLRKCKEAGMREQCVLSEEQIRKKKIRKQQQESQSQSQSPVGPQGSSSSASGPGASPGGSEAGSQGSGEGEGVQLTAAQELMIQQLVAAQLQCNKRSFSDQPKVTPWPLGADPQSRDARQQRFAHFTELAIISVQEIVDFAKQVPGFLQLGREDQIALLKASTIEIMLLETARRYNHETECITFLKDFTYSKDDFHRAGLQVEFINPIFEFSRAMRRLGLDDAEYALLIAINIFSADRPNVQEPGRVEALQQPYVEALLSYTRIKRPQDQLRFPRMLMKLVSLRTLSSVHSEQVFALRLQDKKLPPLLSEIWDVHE

[23] = Luminescence-based cell-based high throughput dose response assay to identify activators of the DAF-12 from the parasite S. stercoralis (ssDAF-12).; assay type: functional
[24] = P. falciparum Dd2 growth inhibitors, dose response, SYBR Green, dry powder samples (AID 1159566); assay type: functional, cell-based;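 note: potency for growth inhibition with lower SYBR green DNA signal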
[25] = P. falciparum ATP4 D1247Y mutant growth inhibitors, dose response, NITD609-resistant line, SYBR Green, dry powder (AID 1159571); assay type: functional, cell-based;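 note: parasites synchronized at ring stage by sorbitol before testing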
[26] = P. falciparum 3D7-ScDHODH growth inhibitors, dose response, SYBR Green, dry powder samples (AID 1159570); assay type: functional, cell-based;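 note: parasite growth measured after 72 hours of compound exposure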
[27] = P. falciparum Dd2 growth inhibitors, dose response, SYBR Green, cherry-picked samples (AID 1159567); assay type: functional, cell-based

In the case of `CN(C)c1ccc(/C=C/C(=O)c2cccc(Br)c2)cc1`, the EC50 [1] is reported as > 300 µM (inconclusive), the IC50 (Ephrin type-A receptor 4) is reported as > 100 µM (not active) and the EC50 [2] is reported as > 300 µM (not active). The IC50 (Beta Lactamase) was 5.6 µM (active) and the IC50 (CHO) was > 49.7 µM (inactive).

For `Cc1cc(C)cc(NC2=CC(=O)CC(c3ccco3)C2)c1` (stereo not given), the CC50 [3] was 25.1 µM (active) and the IC50 [4] was > 60.7 µM (active).

With `O=C(C1CCCCC1)N1CC(=O)N2CCc3ccccc3[C@@H]2C1` [PRAZIQUANTEL, (R)-] the AC50 (Cytochrome P450 2C9) was “inconclusive”, the AC50 (Cytochrome P450 2C19 [5]) was 5.01 µM (inconclusive) and the AC50 (Cytochrome P450 2C19 [6]) was 25.1 µM (inconclusive).

With `O=S(=O)(NNc1ncc(C(F)(F)F)cc1Cl)c1ccc(F)cc1F` the EC50 [7] was 3.38 µM (active).

In the case of `CN(c1ccc2nc3ccccc3c(=O)n2n1)C1CCCCC1`, the EC50 [8] is reported as < 0.16 µM (active), the CC50 [3] is reported as 36.6 µM (active) and the AC50 [9] is reported as 6.5 µM (active). For the same molecule, the AC50 [10] was 6.41 µM (active), the AC50 [11] was 2.13 µM (active) and the AC50 [12] was 26.9 µM (active). The AC50 [13] was 31.1 µM (active), the AC50 [14] was 1.29 µM (active) and the IC50 (Protein Tat) was > 100 µM (active).

For `OC[C@@H](O)[C@H](O)[C@H](O)[C@@H](O)CO` [GALACTITOL], the IC50 [15] was > 20 µM (inactive), the IC50 [16] was > 20 µM (inactive) and the IC50 [17] was > 20 µM (inactive). The IC50 [18] was > 20 µM (inactive), the IC50 [19] was > 20 µM (inactive) and the IC50 [20] was > 20 µM (inactive). For the same molecule, the IC50 [21] was > 20 µM (inactive).

For `Cc1ccc(CNC(=O)CN2CCC(C(N)=O)CC2)cc1`, the IC50 (Ephrin type-A receptor 4) was > 100 µM (not active).

In the case of `CC1CCCCN1CCNC(=O)CC1Oc2ccccc2NC1=O` (stereo not given), the EC50 [22] is reported as > 67.5 µM (inactive) and the IC50 [23] is reported as > 67.5 µM (inactive).

For `COc1cc(C(=O)Nc2cccc(-c3nc4ncccc4o3)c2C)cc(OC)c1OC`, the IC50 [4] was > 100 µM (active).

With `Cc1c(-c2cc[nH]n2)cc(NC(=O)c2ccc(Cl)cc2)c(=O)n1N` the EC50 [7] was 1.17 µM (active).

For `COc1cc2c(cc1OC)-c1c(O)c(OC)cc3c1[C@@H](C2)N(C)CC3`, the AC50 (Cytochrome P450 2C19 [6]) was 25.1 µM (inconclusive).

With `COc1ccc(NC(=O)NC(C)C2CC3CCC2C3)cc1` (stereo not given) the EC50 [22] was > 67.5 µM (inactive) and the IC50 [23] was > 67.5 µM (inactive).

In the case of `O=C(Cc1ccccc1)N1CC(=O)N2[C@H](CO)[C@H](c3ccc(C#Cc4ccccc4)cc3)[C@H]2C1`, the AC50 [24] is reported as 0.0291 µM (active), the AC50 [25] is reported as 0.0288 µM (active) and the AC50 [26] is reported as 0.0554 µM (active). The AC50 [27] was < 0.3 µM (active).

In the case of `FC(F)(F)c1cc(-c2ccco2)nc(NCc2cccnc2)n1`, the IC50 (Protein Tat) is reported as > 100 µM (active).
